Assay: Storage stability of solutions in cosmetic oils (clouding and precipitation)
Format: physicochemical
Settings: after 2 days
Text: Storage Stability of Solutions of the Tautomeric Form I in Cosmetic Oils
Both solutions were still clear after 2 days.

CCCCC(CC)COC(=O)c1ccc(Nc2nc(Nc3ccc(C(=O)OCC(CC)CCCC)cc3)nc(Nc3ccc(C(=O)OCC(CC)CCCC)cc3)n2)cc1 (centres unmarked) [I, 2,4,6-trianilino-p-(carbo-2′-ethylhexyl-1′-oxy)-1,3,5-triazine]
appearance of solution on storage (solution in C8–C10-coconut fatty acid triglyceride): still clear
appearance of solution on storage (solution in cetylstearyl 2-ethylhexanoate): still clear

Reference: patent US7074922B2, “Method for producing the tautomeric form of (1) of 2,4,6-trianilino-p-(carbo-1′-ethylhexyl-1′oxyl)-1, 3, 5-triazine” (BASF Aktiengesellschaft, priority 2002, dated 2006)
